Laboratory results reported in patent publication US20220024882A1, “NOVEL TUMOR ANTIGEN BINDING AGENTS AND USES THEREOF” (ITM Isotopen Technologien München AG, priority 2018, published 2022).
“And” between values parts separate entries of the source, which are not always exact repeats. Equal values may be shown once.

Key:
[1] = test system: PC-3 PIP/flu tumor-bearing mice; experiment: Biodistribution study in PC-3 PIP/flu tumor-bearing mice; assay type: in vivo, athymic nude Balb/c mice; conditions: for Blood / Bone / Heart / Intestines / Kidneys / Liver / Lung / Muscle / Salivary glands / Spleen / Stomach / Tumor-to-blood / Tumor-to-kidney / Tumor-to-liver: PC-3 PIP/flu tumor-bearing mice; for PC-3 flu Tumor: PSMA-negative tumor xenograft; for PC-3 flu Tumor / PC-3 PIP Tumor: mice; for PC-3 PIP Tumor: PSMA-positive tumor xenograft
Description: (§1) In vivo experiments were approved by the local veterinarian department and conducted in accordance with the Swiss law of animal protection. Mice were obtained from Charles River Laboratories, Sulzfeld, Germany, at the age of 5-6 weeks. Female, athymic nude Balb/c mice were subcutaneously inoculated with PSMA-positive PC-3 PIP cells (6×10^6 cells in 100 μL Hank's balanced salt solution (HBSS) with Ca^2+/Mg^2+) on the right shoulder and with PSMA-negative PC-3 flu cells (5×10^6 cells in 100 μL HBSS Ca^2+/Mg^2+) on the left shoulder. Two weeks later, the tumors reached a size of about 80-300 mm^3 suitable for the performance of the biodistribution studies.
Biodistribution studies were performed 12-15 days after PC-3 PIP/flu tumor cell inoculation. […] The radioligands were injected in a lateral tail vein in a volume of 100-200 μL. Mice were euthanized at different time points after injection (p.i.) of the radioligands. Selected tissues and organs were collected, weighed and measured using a γ-counter. The results were decay-corrected and listed as a percentage of the injected activity per gram of tissue mass (% IA/g) (Table 3 and 4).
Mice were obtained from Charles River Laboratories, Sulzfeld, Germany, at the age of 5-6 weeks. Female, athymic nude BALB/c mice were subcutaneously inoculated with PSMA-positive PC-3 PIP cells (6×10^6 cells in 100 μL Hank's balanced salt solution (HBSS)) on the right shoulder and with PSMA-negative PC-3 flu cells (5×10^6 cells in 100 μL HBSS) on the left shoulder. Two weeks later, the tumors reached a size of about 80-300 mm^3 suitable for the performance of the biodistribution and imaging studies.
Biodistribution studies were performed 12-15 days after PC-3 PIP/flu tumor cell inoculation. ^177Lu-Ibu-sPSMA was diluted in 0.9% NaCl containing 0.05% bovine serum albumin (BSA) to prevent adhesion to the vial and syringe material. The radioligand was injected in a lateral tail vein in a volume of 100 μL. Mice were euthanized at different time points after injection (p.i.) of the radioligand. Selected tissues and organs were collected, weighed and measured using a γ-counter. The results were decay-corrected and listed as a percentage of the injected activity per gram of tissue mass (% IA/g) (Table 6, FIG. 18).

[2] = Whole-body activity measurements, tumor-bearing mice; assay type: in vivo, athymic nude Balb/c mice; conditions: 4 h p.i., 30 MBq, 1 nmol i.v., activity right after injection = 100%
Description: as §1, with “imaging” for “biodistribution”
The single radioligands (specific activity: 30 MBq/nmol) were diluted in 0.9% NaCl containing 0.05% bovine serum albumin (BSA) and i.v. injected into PC-3 PIP/flu tumor bearing mice (30 MBq, 1 nmol, 100 μL) for SPECT/CT imaging purposes. The mice were measured in a dose calibrator at 4 h, 24 h, 48 h and 72 h p.i., respectively.

Row | Structure (SMILES) | Blood ([1]; 4 h p.i.) [% IA/g] | Bone ([1]; 4 h p.i.) [% IA/g] | Heart ([1]; 4 h p.i.) [% IA/g] | Intestines ([1]; 4 h p.i.) [% IA/g] | Kidneys ([1]; 4 h p.i.) [% IA/g] | Liver ([1]; 4 h p.i.) [% IA/g] | Lung ([1]; 4 h p.i.) [% IA/g] | Muscle ([1]; 4 h p.i.) [% IA/g] | Salivary glands ([1]; 4 h p.i.) [% IA/g] | Spleen ([1]; 4 h p.i.) [% IA/g] | Stomach ([1]; 4 h p.i.) [% IA/g] | Tumor-to-blood ([1]; 4 h p.i.) | Tumor-to-kidney ([1]; 4 h p.i.) | Tumor-to-liver ([1]; 4 h p.i.) | PC-3 flu Tumor ([1]; 4 h p.i.) [% IA/g] | PC-3 PIP Tumor ([1]; 4 h p.i.) [% IA/g] | Bone ([1]; 24 h p.i.) [% IA/g] | Heart ([1]; 24 h p.i.) [% IA/g] | Intestines ([1]; 24 h p.i.) [% IA/g] | Kidneys ([1]; 24 h p.i.) [% IA/g] | also measured
1 | CC(C)Cc1ccc(C(C)C(=O)NC(CC(N)=O)C(=O)NCCCCC(NC(=O)CN2CCN(CC(=O)O)CCN(CC(=O)O)CCN(CC(=O)O)CC2)C(=O)NCC2CCC(C(=O)NC(Cc3ccc4ccccc4c3)C(=O)NCCCCC(NC(=O)NC(CCC(=O)O)C(=O)O)C(=O)O)CC2)cc1 (stereo not shown) [^177Lu-Ibu-N-PSMA, metal not drawn] | 3.58 ± 1.39 | 0.56 ± 0.22 | 1.23 ± 0.61 | 0.50 ± 0.18 | 27.1 ± 8.37 | 1.27 ± 0.55 | 2.20 ± 0.95 | 0.47 ± 0.19 | 0.94 ± 0.38 | 1.40 ± 0.75 | 0.51 ± 0.23 | 20.1 ± 6.22 | 2.48 ± 0.11 | 18.2 ± 2.70 | 1.15 ± 0.52 | 65.4 ± 15.6 | 0.08 ± 0.02 | 0.12 ± 0.03 | 0.09 ± 0.02 | 8.02±1.13 | Liver ([1]; 24 h p.i.): 0.32 ± 0.05 % IA/g; Lung ([1]; 24 h p.i.): 0.24 ± 0.06 % IA/g; Muscle ([1]; 24 h p.i.): 0.06 ± 0.02 % IA/g; Salivary glands ([1]; 24 h p.i.): 0.57 ± 0.35 % IA/g; Spleen ([1]; 24 h p.i.): 0.24 ± 0.06 % IA/g; Stomach ([1]; 24 h p.i.): 0.17 ± 0.09 % IA/g; Tumor-to-blood ([1]; 24 h p.i.): 227 ± 41.7; Tumor-to-kidney ([1]; 24 h p.i.): 6.90 ± 2.43; Tumor-to-liver ([1]; 24 h p.i.): 182 and 182 ± 52.6; PC-3 flu Tumor ([1]; 24 h p.i.): 0.23 ± 0.01 % IA/g; PC-3 PIP Tumor ([1]; 24 h p.i.): 58.0 ± 21.0 % IA/g; whole-body retention of radioactivity [2]: 12%
2 | CC(C)Cc1ccc(C(C)C(=O)NCCCCC(NC(=O)CN2CCN(CC(=O)O)CCN(CC(=O)O)CCN(CC(=O)O)CC2)C(=O)NCC2CCC(C(=O)NC(Cc3ccc4ccccc4c3)C(=O)NCCCCC(NC(=O)NC(CCC(=O)O)C(=O)O)C(=O)O)CC2)cc1 (stereo not shown) [^177Lu-Ibu-PSMA, metal not drawn] | 5.96 ± 1.53 | 1.01 ± 0.18 | 2.28 ± 0.68 | 1.00 ± 0.27 | 32.5 ± 0.86 | 2.77 ± 0.43 | 3.72 ± 0.73 | 0.97 ± 0.37 | 1.66 ± 0.36 | 1.76 ± 0.23 | 0.79 ± 0.26 | 14.1 ± 2.25 | 2.60 ± 0.08 | 29.7 ± 3.11 | 2.19 ± 0.52 | 81.3±6.28 | 0.20 ± 0.04 | 0.33 ± 0.06 | 0.23 ± 0.04 | 16.5 ± 1.48 | Blood ([1]; 24 h p.i.): 0.58 ± 0.09 % IA/g; Liver ([1]; 24 h p.i.): 0.91 ± 0.12 % IA/g; Lung ([1]; 24 h p.i.): 0.62 ± 0.12 % IA/g; Muscle ([1]; 24 h p.i.): 0.12 ± 0.04 % IA/g; Salivary glands ([1]; 24 h p.i.): 0.34 ± 0.07 % IA/g; Spleen ([1]; 24 h p.i.): 0.68 ± 0.15 % IA/g; Stomach ([1]; 24 h p.i.): 0.23 ± 0.02 % IA/g; Tumor-to-blood ([1]; 24 h p.i.): 149 ± 16.7; Tumor-to-kidney ([1]; 24 h p.i.): 5.36 ± 0.73; Tumor-to-liver ([1]; 24 h p.i.): 95.4 ± 10.6; PC-3 flu Tumor ([1]; 24 h p.i.): 0.58 ± 0.19 % IA/g; PC-3 PIP Tumor ([1]; 24 h p.i.): 86.8±18.0 % IA/g and 86.9 ± 18.0 % IA/g; whole-body retention of radioactivity [2]: 33%
3 | CC(C)Cc1ccc(C(C)C(=O)NC(CC(=O)NCCCCC(NC(=O)CN2CCN(CC(=O)O)CCN(CC(=O)O)CCN(CC(=O)O)CC2)C(=O)NCC2CCC(C(=O)NC(Cc3ccc4ccccc4c3)C(=O)NCCCCC(NC(=O)NC(CCC(=O)O)C(=O)O)C(=O)O)CC2)C(=O)O)cc1 (stereo not shown) [^177Lu-Ibu-Dβ-PSMA, metal not drawn] | 13.2±1.15 | 1.87 ± 0.16 | 4.19 ± 0.23 | 1.81 ± 0.23 | 32.2 ± 2.46 | 3.87 ± 0.16 | 8.55 ± 3.30 | 1.79 ± 0.48 | 3.33 ± 0.15 | 2.60 ± 0.23 | 1.51 ± 0.18 | 5.03±0.73 | 2.06 ± 0.23 | 17.0 ± 1.73 | 3.86 ± 0.18 | 65.7 ± 7.31 | 0.26 ± 0.03 | 0.57 ± 0.02 | 0.40 ± 0.07 | 21.3 ± 1.53 | Blood ([1]; 24 h p.i.): 1.28 ± 0.05 % IA/g; Liver ([1]; 24 h p.i.): 0.69 ± 0.07 % IA/g; Lung ([1]; 24 h p.i.): 1.17 ± 0.06 % IA/g; Muscle ([1]; 24 h p.i.): 0.22 ± 0.04 % IA/g; Salivary glands ([1]; 24 h p.i.): 0.61 ± 0.02 % IA/g; Spleen ([1]; 24 h p.i.): 1.03 ± 0.08 % IA/g; Stomach ([1]; 24 h p.i.): 0.48 ± 0.13 % IA/g; Tumor-to-blood ([1]; 24 h p.i.): 83.6 ± 9.06; Tumor-to-kidney ([1]; 24 h p.i.): 4.90 ± 0.29; Tumor-to-liver ([1]; 24 h p.i.): 151 ± 3.37; PC-3 flu Tumor ([1]; 24 h p.i.): 0.79 ± 0.12 % IA/g; PC-3 PIP Tumor ([1]; 24 h p.i.): 106±9.70 % IA/g; whole-body retention of radioactivity [2]: 49%
4 | CC(C)Cc1ccc(C(C)C(=O)NC(CC(=O)O)C(=O)NCCCCC(NC(=O)CN2CCN(CC(=O)O)CCN(CC(=O)O)CCN(CC(=O)O)CC2)C(=O)NCC2CCC(C(=O)NC(Cc3ccc4ccccc4c3)C(=O)NCCCCC(NC(=O)NC(CCC(=O)O)C(=O)O)C(=O)O)CC2)cc1 (stereo not shown) [^177Lu-Ibu-Dα-PSMA, metal not drawn] | 2.33 ± 0.71 | 0.37 ± 0.10 | 0.89 ± 0.27 | 0.49 ± 0.08 | 27.2 ± 3.31 | 0.84 ± 0.22 | 1.54 ± 0.35 | 0.35 ± 0.08 | 0.74 ± 0.20 | 0.90 ± 0.04 | 0.25 ± 0.08 | 22.5 ± 5.28 | 1.82 ± 0.03 | 60.8 ± 11.1 | 1.00 ± 0.21 | 49.4 ± 5.33 | 0.11 ± 0.02 | 0.18 ± 0.03 | 0.11 ± 0.02 | 18.2 ± 3.06 | Kidneys ([1]; 1 h p.i.): 73±2 % IA/g; Tumor-to-kidney ([1]; 1 h p.i.): 0.59±0.08; Blood ([1]; 24 h p.i.): 0.33 ± 0.06 % IA/g; Liver ([1]; 24 h p.i.): 0.37 ± 0.04 % IA/g; Lung ([1]; 24 h p.i.): 0.39 ± 0.09 % IA/g; Muscle ([1]; 24 h p.i.): 0.07 ± 0.02 % IA/g; Salivary glands ([1]; 24 h p.i.): 0.21 ± 0.04 % IA/g; Spleen ([1]; 24 h p.i.): 0.46 ± 0.10 % IA/g; Stomach ([1]; 24 h p.i.): 0.12 ± 0.03 % IA/g; Tumor-to-blood ([1]; 24 h p.i.): 198 ± 32.6; Tumor-to-kidney ([1]; 24 h p.i.): 3.56 ± 0.34; Tumor-to-liver ([1]; 24 h p.i.): 196 and 196 ± 44.4; PC-3 flu Tumor ([1]; 24 h p.i.): 0.38 ± 0.05 % IA/g; PC-3 PIP Tumor ([1]; 24 h p.i.): 84.2±14.9 % IA/g; whole-body retention of radioactivity [2]: 29%
